In brackets after ≈: the same amount, converted by molar mass. Where two headings read alike, the source gives them in different places.
Legend:
human TRPA1 = human TRPA1 (Homo sapiens, UniProt O75762); test: Inhibition of the TRPA1 ion channel, whole cell patch configuration (Example 1); type: cell-based; settings: current activation 10 µM AITC, read-out: Human TRPA1 IC50 Inward Current
Method: Compounds of Formula (Ia) inhibit the TRPA1 channel, as measured using the method of Example 1. […] Data for TRPA1 inhibition and for TRPA1 selectivity was obtained by this method for the indicated compounds of Formula (Ia), with the relevant data included in Tables 1a - f below. All currents were recorded in whole-cell configuration using EPC-9 and EPC-10 amplifiers and Patchmaster software (HEKA). […] The standard pipette solution consisted of 140mM CsAsp, 10 mM EGTA, 10 mM HEPES, 2.27 mM MgCl2, 1.91 mM CaCl2, 4 mM MgATP, and 0.1-0.3 mM Na2GTP, with pH adjusted to 7.2 with CsOH. In addition, a solution containing 145 mM CsCl, 10 mM HEPES, 10 mM EGTA and 1 mM MgCl2 (pH 7.2 adjusted with CsOH) can be used. The standard bath solution contained 150 mM NaCl, 10 mM HEPES, 10 mM glucose, 4.5 mM KCl, 1 mM EGTA, 3 mM MgCl2, with pH adjusted to 7.4 with NaOH. In some instances, 2 mM CaCl2 was added in place of EGTA and the concentration of MgCl2 was reduced to 1 mM.
Data were collected either by continuous recordings at -60 mV or by applying voltage ramps from a holding potential of 0 mV every 4 s. Continuous recordings were collected at 400 Hz and digitally filtered off-line at 10 Hz for presentation. Voltage ramps were applied from - 100 mV to 100 mV over the course of 400 ms, and data were collected at 10 kHz and filtered at 2.9 kHz. Inward and outward currents were analyzed from the ramps at -80 and 80 mV, respectively. Liquid junction potential correction was not used.
Solutions were switched using a gravity-fed continuous focal perfusion system. To achieve rapid temperature changes, two temperature control, and perfusion systems were employed simultaneously. For temperatures ≥ 22°C, a Warner Instruments bipolar temperature controller (TC-344B) and inline heater (SHM-8) were used. […] Temperatures were confirmed using a thermistor (Warner Instruments, TA-29), with temperatures at the recorded cell estimated to be within +/- 2°C of those reported.
The antagonist effects of compounds of Formula (Ia) against human TRPA1 ("hTRPA1") and for some compounds rat TRPA1 ("rTRPA1") in a whole cell patch configuration were evaluated using the in vitro assay described above. The current activation tested was 10 µM AITC, and the tested concentrations ranged from 5 µM and 500 nM. Table 1a (Comparative Compounds)

rats = test: Rodent formalin pain model (Example 3); type: in vivo; settings: rat; for Minimal Efficacious Dose of Compound in Formalin Model: IV, statistically significant difference vs vehicle at 0 - 2 min (p≤0.05); for Duration of Pain Behavior: first two minutes after formalin, vehicle 88.6
Method: Compounds of Formula (Ia) are active in rodent models of pain induced by direct activation of the TRPA1 channel with intraplantar injection of the TRPA1 agonist formalin. Compounds of Formula (Ia) were tested in the formalin-induced pain test reported by Abbott et. al. Pain. 1995 Jan;60(1):91-102. Dubuisson et al. describe a method for assessing pain and analgesia in rats. Briefly, dilute formalin (50 µL of 3 % formalin) is injected into the plantar surface of the hind paw. […] The individual responsible for counting the pain behaviors in a particular study is blinded to the treatment groups.
Table 2 is a data table showing the results from testing compounds of Formula (Ia) in the rodent formalin-induced pain model described in […]. Rats were treated with the compounds of Formula (Ia) at various doses (0.1, 0.3, 1, 1.2, 3, 4, 10, or 30 mg/Kg IV) or with a control composition containing the vehicle (i.e., without a compound of Formula (Ia)). Pain behaviors (flinch, lift, lick, bite) were monitored following intraplantar formalin injection. Referring to Table 2, the minimum effective dose was derived from dose resulting in statistically significant difference in behavior at 0 - 2 min time period as compared with vehicle (p≤0.05).

[1] = Aqueous solubility in buffered solutions, HPLC (Example 2); type: physicochemical; settings: kinetic from dmso stock, ambient temperature
[2] = sodium bicarbonate buffer in water for injection/5% dextrose, pH 9.0, 50 mM sodium bicarbonate, read-out: pH 9.0 aqueous solubility
[3] = sodium phosphate buffer in water for injection/5% dextrose, pH 7.4, 75 mM sodium phosphate, read-out: pH 7.4 aqueous solubility

human TRPA1, sequence (O75762 whole entry): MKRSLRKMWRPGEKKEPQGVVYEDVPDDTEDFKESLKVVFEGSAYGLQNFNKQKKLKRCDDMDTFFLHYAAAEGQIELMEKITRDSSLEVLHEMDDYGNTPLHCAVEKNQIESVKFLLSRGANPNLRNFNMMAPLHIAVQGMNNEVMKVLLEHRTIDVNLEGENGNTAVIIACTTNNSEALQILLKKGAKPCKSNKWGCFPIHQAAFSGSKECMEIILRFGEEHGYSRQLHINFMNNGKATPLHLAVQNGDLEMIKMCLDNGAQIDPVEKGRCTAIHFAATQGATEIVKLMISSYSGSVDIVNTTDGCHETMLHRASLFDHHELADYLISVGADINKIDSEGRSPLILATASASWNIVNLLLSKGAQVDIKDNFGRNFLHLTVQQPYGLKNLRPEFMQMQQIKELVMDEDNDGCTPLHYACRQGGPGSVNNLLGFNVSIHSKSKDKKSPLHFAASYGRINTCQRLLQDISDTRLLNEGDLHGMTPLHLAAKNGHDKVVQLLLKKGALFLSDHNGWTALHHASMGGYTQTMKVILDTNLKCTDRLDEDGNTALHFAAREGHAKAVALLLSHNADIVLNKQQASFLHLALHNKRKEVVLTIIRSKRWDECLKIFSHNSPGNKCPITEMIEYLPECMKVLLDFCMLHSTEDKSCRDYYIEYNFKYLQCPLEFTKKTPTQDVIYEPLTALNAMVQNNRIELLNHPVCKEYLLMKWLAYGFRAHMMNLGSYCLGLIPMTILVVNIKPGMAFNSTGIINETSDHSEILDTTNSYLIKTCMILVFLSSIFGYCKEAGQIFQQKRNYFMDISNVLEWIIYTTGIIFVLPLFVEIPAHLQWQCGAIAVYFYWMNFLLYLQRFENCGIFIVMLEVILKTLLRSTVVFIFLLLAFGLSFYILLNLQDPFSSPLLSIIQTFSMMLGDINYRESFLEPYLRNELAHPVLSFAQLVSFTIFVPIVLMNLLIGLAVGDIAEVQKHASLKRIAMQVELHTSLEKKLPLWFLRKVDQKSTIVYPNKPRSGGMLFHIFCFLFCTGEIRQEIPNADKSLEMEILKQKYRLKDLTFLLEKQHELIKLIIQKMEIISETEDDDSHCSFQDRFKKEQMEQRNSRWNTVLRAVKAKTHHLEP

IC50 (human TRPA1) [nM] | SMILES | other results
> 100 | C[C@H]1CCCN1c1cncc(NC(=O)[C@H](C)N2C=NC3C2C(=O)N(C)C(=O)N3C)n1 (stereo partly shown) [Comparator 5, reference compound] | 
> 100 | C[C@H]1CCCN1c1cccc(NC(=O)[C@H](C)N2C=NC3C2C(=O)N(C)C(=O)N3C)n1 (stereo partly shown) [Comparator 6, reference compound] | 
< 25 | C[C@@H](C(=O)Nc1cccc(-c2cnc(N3CCC[C@H]3C(F)(F)F)nc2)n1)n1cnc2c1c(=O)n(C)c(=O)n2C [Compound 1-B, (S)-2-(1,3-Dimethyl-2,6-dioxo-1,2,3,6-tetrahydro-7H-purin-7-yl)-N-(6-(2-((S)-2-(trifluoromethyl)pyrrolidin-1-yl)pyrimidin-5-yl)pyridin-2-yl)propanamide] | Minimal Efficacious Dose of Compound in Formalin Model (rats): <3 mg/kg; Duration of Pain Behavior (rats; dose 3 mg/kg IV): 6.1 s; Duration of Pain Behavior (rats; dose 10 mg/kg IV): 0.3 s; solubility kinetic at 24 h [1, 2]: 49 µg/mL (≈ 90.2 µM); solubility kinetic at 24 h [1, 3]: 44 µg/mL (≈ 81 µM)
< 25 | CC(C(=O)Nc1cccc(-c2cnc(N3CCC[C@H]3C(F)(F)F)nc2)n1)n1cnc2c1c(=O)n(C)c(=O)n2C (stereo partly shown) [Compound 1-C] | 
> 100 | C[C@H](C(=O)Nc1cccc(-c2cnc(N3CCC[C@H]3C(F)(F)F)nc2)n1)n1cnc2c1c(=O)n(C)c(=O)n2C [Compound 1-D] | 
< 25 | C[C@@H](C(=O)Nc1cncc(-c2cnc(N3CCCC3(C)C)nc2)n1)n1cnc2c1c(=O)n(C)c(=O)n2C [Compound 2-F, (S)-2-(1,3-dimethyl-2,6-dioxo-1,2,3,6-tetrahydro-7H-purin-7-yl)-N-(6-(2-(2,2-dimethylpyrrolidin-1-yl)pyrimidin-5-yl)pyrazin-2-yl)propanamide] | Minimal Efficacious Dose of Compound in Formalin Model (rats): 1 mg/kg; Duration of Pain Behavior (rats; dose 0.3 mg/kg IV): 67.5 s; Duration of Pain Behavior (rats; dose 1 mg/kg IV): 7 s; Duration of Pain Behavior (rats; dose 3 mg/kg IV): 5 s; solubility kinetic at 24 h [1, 2]: 6 µg/mL (≈ 11.9 µM); solubility kinetic at 24 h [1, 3]: 6 µg/mL (≈ 11.9 µM)
> 100 | C[C@H](C(=O)Nc1cncc(-c2cnc(N3CCCC3(C)C)nc2)n1)n1cnc2c1c(=O)n(C)c(=O)n2C [Compound 2-G] | 
< 25 | [2H]C([2H])([2H])n1c(=O)n(C)c(=O)c2c1ncn2[C@@H](C)C(=O)Nc1cncc(-c2cnc(N3CCCC3(C)C)nc2)n1 [Compound 2-H] | 
> 100 | [2H]C([2H])([2H])n1c(=O)n(C)c(=O)c2c1ncn2[C@H](C)C(=O)Nc1cncc(-c2cnc(N3CCCC3(C)C)nc2)n1 [Compound 2-I] | 
25 to 75 | C[C@H]1CCCN1c1ncc(-c2cncc(NC(=O)[C@H](C)n3cnc4c3c(=O)n(C)c(=O)n4C)n2)cn1 [Compound 3-K, (S)-2-(1,3-dimethyl-2,6-dioxo-1,2,3,6-tetrahydro-7H-purin-7-yl)-N-(6-(2-((S)-2-methylpyrrolidin-1-yl)pyrimidin-5-yl)pyrazin-2-yl)propanamide] | Minimal Efficacious Dose of Compound in Formalin Model (rats): <3 mg/kg; Duration of Pain Behavior (rats; dose 3 mg/kg IV): 13.5 s; Duration of Pain Behavior (rats; dose 10 mg/kg IV): 2.6 s; Duration of Pain Behavior (rats; dose 30 mg/kg IV): 3.4 s; solubility kinetic at 24 h [1, 2]: 48 µg/mL (≈ 97.9 µM); solubility kinetic at 24 h [1, 3]: 38 µg/mL (≈ 77.5 µM)
> 100 | C[C@H](C(=O)Nc1cncc(-c2cnc(N3CCC[C@@H]3C)nc2)n1)n1cnc2c1c(=O)n(C)c(=O)n2C [Compound 3-L] | 
< 25 | [2H]C([2H])([2H])n1c(=O)n(C)c(=O)c2c1ncn2[C@@H](C)C(=O)Nc1cncc(-c2cnc(N3CCC[C@@H]3C)nc2)n1 [Compound 3-M] | 
> 100 | C[C@H]1CCCN1c1ncc(-c2cncc(NC(=O)[C@H](C)n3cnc4c3c(=O)n(C)c(=O)n4C)n2)cn1 [Compound 3-N, (S)-2-(1,3-dimethyl-2,6-dioxo-1,2,3,6-tetrahydro-7H-purin-7-yl)-N-(6-(2-((S)-2-methylpyrrolidin-1-yl)pyrimidin-5-yl)pyrazin-2-yl)propanamide] | 
25 to 75 | C[C@H]1CCCN1c1ncc(-c2cccc(NC(=O)[C@H](C)n3cnc4c3c(=O)n(C)c(=O)n4C)n2)cn1 [Compound 4-P] | 
25 to 75 | CC(C(=O)Nc1cccc(-c2cnc(N3CCC[C@@H]3C)nc2)n1)n1cnc2c1c(=O)n(C)c(=O)n2C (stereo partly shown) [Compound 4-Q] | 
> 100 | C[C@H](C(=O)Nc1cccc(-c2cnc(N3CCC[C@@H]3C)nc2)n1)n1cnc2c1c(=O)n(C)c(=O)n2C [Compound 4-R] | 
< 25 | CC(C(=O)Nc1cncc(-c2cnc(N3CCC[C@H]3C(F)(F)F)nc2)n1)n1cnc2c1c(=O)n(C)c(=O)n2C (stereo partly shown) [Compound 5-U] | 
> 100 | C[C@H](C(=O)Nc1cncc(-c2cnc(N3CCC[C@H]3C(F)(F)F)nc2)n1)n1cnc2c1c(=O)n(C)c(=O)n2C [Compound 5-V] | 

SMILES | IC50 (human TRPA1) [nM] | other results
CC(C)c1ccc(NC(=O)C(C)n2cnc3c2c(=O)n(C)c(=O)n3C)cc1 (stereo not shown) [Comparator 3, reference compound] | > 100 | 
C[C@H]1CCCN1c1ccc(-c2csc(NC(=O)C(C)(C)n3cnc4c3c(=O)n(C)c(=O)n4C)n2)cc1F [Comparator 4, reference compound] | > 100 | 
